According to ChEMBL document CHEMBL3988442, “University of Dundee, Small-Polar-MMV Screening Library” (2021):

Target: Tryptophan--tRNA ligase (Mycobacterium tuberculosis (strain ATCC 25618 / H37Rv), UniProt P9WFT3)
Test: Biochemical assay for Mt-TrpRS
Format: functional

Chain of Tryptophan--tRNA ligase (P9WFT3 whole entry): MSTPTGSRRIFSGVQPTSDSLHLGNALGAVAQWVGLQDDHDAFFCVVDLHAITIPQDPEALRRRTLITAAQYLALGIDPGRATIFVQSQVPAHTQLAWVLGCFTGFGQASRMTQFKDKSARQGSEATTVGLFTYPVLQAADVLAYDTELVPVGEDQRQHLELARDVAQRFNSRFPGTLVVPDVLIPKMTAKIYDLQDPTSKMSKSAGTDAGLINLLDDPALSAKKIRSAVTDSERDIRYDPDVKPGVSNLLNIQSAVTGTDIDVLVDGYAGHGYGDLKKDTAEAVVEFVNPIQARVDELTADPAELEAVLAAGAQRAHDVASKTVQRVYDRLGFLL

Row | SMILES | IC50 [µM]
1 | CN(C)CC1(O)CCN(S(=O)(=O)c2cccc(F)c2)C1 (stereo unspecified) | > 195
2 | Cc1ccn(-c2ccc(N3CCCN(Cc4ccccc4)CC3)nn2)n1 | > 195
3 | CNc1cccc(C2CCCN(C(=O)c3cccnc3)C2)n1 (stereo unspecified) | > 195
4 | CN(CCc1ccccn1)C(=O)Nc1cc(C(F)(F)F)c[nH]c1=O | > 195
5 | COc1ccc2c3c1CN(C(C)=O)CC3=CC(C)(C)CO2 | > 195
6 | CNCc1cc(F)ccc1Oc1ccc(F)cc1 | > 195
7 | C[C@]1(O)CN(Cc2ncc[nH]2)CC[C@@H]1Oc1cccc(F)c1 | > 195
8 | CC(C)c1ncc(CN2CCC(CO)C2)cn1 (stereo unspecified) | > 195
9 | O=C(COc1cccc(Cl)c1)N1CCOCC1c1ncon1 (stereo unspecified) | > 195
10 | CN(C)C(=O)N1CC[C@@H](c2ccc3ccccc3c2)[C@H](O)C1 | > 195
11 | CC(=O)N1N=C(c2cccs2)OC1C(=O)NCCc1cccc(Cl)c1 (stereo unspecified) | > 195
12 | O=C(c1ccc(=O)[nH]n1)N1CCNCC1c1ccccc1 (stereo unspecified) | > 195
13 | COc1ccc(C(=O)Nc2cccc(SC)c2)c(OC)n1 | > 195
14 | CNC(=O)C1(C)CN(c2nc(C)cc(C)n2)CCO1 (stereo unspecified) | > 195
15 | COCCN1CCC(c2cncc(N(C)C)n2)CC1 | > 195
16 | Cc1noc(C)c1CN(Cc1cccs1)C1CCS(=O)(=O)C1 (stereo unspecified) | > 195
17 | COc1cc(CN2CC[C@H](NC(C)=O)[C@@H](O)CC2)ccc1F | > 195
18 | CC(C)CN1C[C@H](COCc2ccccc2)Oc2ncccc2C1=O | > 195
19 | NC(=O)C1(CCCc2ccccn2)CCCN(Cc2ccncc2)C1 (stereo unspecified) | > 195
20 | O=C(O)Cc1nc2nccc(-c3ccc(F)cc3)n2n1 | > 195
21 | CS(=O)(=O)c1snnc1C1CCN(Cc2cccnc2)CC1 | > 195
22 | Cc1c[nH]nc1C1CCN(C(=O)C2CCCC2)C1 (stereo unspecified) | > 195
23 | CC(C)n1c2ccccc2c2c1cc(C(=O)N(C)C)n2S(C)(=O)=O | > 195
24 | Nc1nccc(C2CCN(CCO)C2)n1 (stereo unspecified) | > 195
25 | CC(C)N(C)CC(=O)N(C)C(c1cccc(F)c1)c1ccccn1 (stereo unspecified) | > 195
26 | Cc1cnc(CC2COCCN(Cc3nccn3C)C2)cn1 (stereo unspecified) | > 195

Row | SMILES | IC50 [µM]
27 | Cc1ccc(CNc2nc(O)cc(C3CC(=O)N(C)C3)n2)cc1 (stereo unspecified) | > 195
28 | CN(Cc1cnn(C)c1)C(=O)CN1CCCC(Cn2cncn2)C1 (stereo unspecified) | > 195
29 | COc1cccc(C2=CCN(CCN3CCOC3=O)CC2)c1 | > 195
30 | Cc1ccc(CN2CCO[C@H]3[C@H](OCc4cccnc4)CC[C@@H]32)o1 | > 195
31 | Cc1ncsc1C(=O)N(Cc1ccccn1)C1CC1 | > 195
32 | Cc1c(C(=O)N2CCC(O)(CN(C)C)C2)c2ccccc2n1C (stereo unspecified) | > 195
33 | Cc1ccc(S(=O)(=O)N2CCC(O)(CN(C)C)C2)cc1 (stereo unspecified) | > 195
34 | Cc1cc(C)nc(C2CCCNC2)n1 (stereo unspecified) | > 195
35 | Cc1nc(C2CCCN2CC(=O)N(C)Cc2ccsc2)no1 (stereo unspecified) | > 195
36 | Cc1csc(Nc2nccnc2C2CCCN2CC(N)=O)n1 (stereo unspecified) | > 195
37 | O=C(C1CCCC1)N1CCCC(c2nc(O)cc(-c3ccncc3)n2)C1 (stereo unspecified) | > 195
38 | CC(=O)N1CCCC(c2ccnc(N(C)C)n2)C1 (stereo unspecified) | > 195
39 | O=C1CCC(=O)N1c1nn(Cc2ccccc2)cc1Cl | > 195
40 | Cc1cncc(CN2C[C@@H](O)[C@H](Oc3ccccc3)C2)c1 | > 195
41 | NCc1cnn(-c2ccccc2C(=O)NCCc2ccccn2)c1 | > 195
42 | O[C@@]1(c2ccccn2)CC[C@H]2CN(Cc3ccccn3)C[C@H]21 | > 195
43 | O[C@H]1CN(Cc2cccc(C(F)(F)F)c2)CC[C@@]12CCCO2 | > 195
44 | CC(=O)N1CCO[C@@H]2CN(Cc3cccc(Cl)c3)C[C@@H]2C1 | > 195
45 | O=C(C1CCCCC1)N1CCC(c2n[nH]c3nccnc23)CC1 | > 195
46 | CC(C)CC(=O)N1CC(=O)N(Cc2ccco2)CC(O)C1 (stereo unspecified) | > 195
47 | CN1CCC(c2cccc(Cc3ccccc3)n2)CC1 | > 195
48 | Cc1noc(C2(C)CCCN(C(=O)c3cccnc3)C2)n1 (stereo unspecified) | > 195
49 | NC(=O)CN1CCCC(Cc2ccc(N3CCOCC3)nn2)C1 (stereo unspecified) | > 195
50 | COCCNc1nnc(-c2ccccn2)s1 | > 195
51 | O=C(c1ccco1)N1CCC2(CCCN(c3ncccn3)C2)C1 (stereo unspecified) | > 195
52 | Fc1cccc(-c2nc(CN3CCCC3Cn3cccn3)co2)c1 (stereo unspecified) | > 195

Row | SMILES | IC50 [µM]
53 | c1cc(CN2C[C@H](OCC3CCOCC3)[C@H]3COC[C@H]32)co1 | > 195
54 | CC(=O)NC(=O)C1(CCCc2ccncc2)CCN1 (stereo unspecified) | > 195
55 | O=C(CCC1CCCC1)N1CCCC(c2ncc3c(n2)CCNC3)C1 (stereo unspecified) | > 195
56 | CN1CC(=O)c2sc(NCCc3ccccc3)nc2C1 | > 195
57 | Cc1ccc(C(=O)NS(=O)(=O)c2ccccc2Cl)c(=O)[nH]1 | > 195
58 | CCCC1CN(CC(C)C)C(=O)c2cccnc2O1 (stereo unspecified) | > 195
59 | COCCC(=O)N1CCC2(COCc3cnc(-c4cccnc4)nc32)C1 (stereo unspecified) | > 195
60 | CCC(CC)c1nnc(NC(=O)NC(C)Cn2cccn2)s1 (stereo unspecified) | > 195
61 | O=C(NCC1=CCCCC1)C(c1cccnc1)N1CCCC1 (stereo unspecified) | > 195
62 | Cc1ccc2c(c1C)OCC2NCc1ccc(C#N)cc1 (stereo unspecified) | > 195
63 | Cc1c[nH]nc1C1CCN(C(=O)C2CCC2)CC1 | > 195
64 | COCCN1C(=O)CO[C@H]2CN(Cc3ccccc3Cl)C[C@@H]21 | > 195
65 | CC(C)N1CCCC2(CCN(Cc3noc(C4CCCC4)n3)C2)C1=O (stereo unspecified) | > 195
66 | c1cnnc(N2CCCC(NCc3nc(-c4ccco4)no3)C2)c1 (stereo unspecified) | > 195
67 | Cc1cc(-c2cnn(CCNC(=O)Cc3ccccn3)c2C2CC2)on1 | > 195
68 | COc1ccccc1C1=NOC(CC2(C(=O)O)CCOCC2)C1 (stereo unspecified) | > 195
69 | O=C1NCC[C@]12CN(Cc1ccco1)C[C@H]2c1ccccc1 | > 195
70 | Fc1ccccc1OCCc1cc(C2CNCCO2)n[nH]1 (stereo unspecified) | > 195
71 | CCc1ccc(CN2C[C@H](OC)[C@H]3COC[C@H]32)o1 | > 195
72 | COc1ccccc1NC(=O)NCc1cn[nH]c1 | > 195
73 | Cn1c(=O)c2cc(C(=O)NCCOCC(F)(F)F)ccc2n(C)c1=O | > 195
74 | CSc1ncc(C(=O)NCc2cc3n(n2)CCCN(CC(C)C)C3)cn1 | > 195
75 | O=C(c1cc2c(s1)CCCC2)N1CCc2nc(C3CCCN3)ncc2C1 (stereo unspecified) | > 195
76 | COCCN(C)C(=O)c1nc2c(s1)CCCN2C | > 195
77 | O=C(Cn1cccnc1=O)NC(Cc1ccsc1)c1nccs1 (stereo unspecified) | > 195
78 | COc1cccc(CN2CC[C@H](NC(C)=O)[C@@H](O)CC2)c1F | > 195

Row | SMILES | IC50 [µM]
79 | CC(=O)NC1CCCN(C(=O)CCc2cccnc2)C1 (stereo unspecified) | > 195
80 | CCn1cnnc1CNC(=O)NC(c1cccs1)C1CCCC1 (stereo unspecified) | > 195
81 | O=C([C@@H]1C[C@@H]2CCN(Cc3ccoc3)C[C@H]2O1)N1CCCC1 | > 195
82 | CO[C@H]1CN(Cc2cc(F)ccc2F)CC[C@@]12CCCO2 | > 195
83 | Cn1cc(C(=O)NCc2cncc3c2CCN(c2ccccn2)C3)cn1 | > 195
84 | CNc1cc(-c2ccncc2)ncn1 | > 195
85 | COCC(=O)N1CCCCC1c1nccc(C)n1 (stereo unspecified) | > 195
86 | Cn1cccc1CNC(=O)CCCc1nnc2ccccn12 | > 195
87 | CN1CC[C@@H]2OC[C@H](C(=O)N(C)Cc3ccccn3)C[C@@H]2C1 | > 195
88 | CN(C)Cc1cncc2c1CCN(Cc1ccoc1)C2 | > 195
89 | CO[C@H]1CC[C@H]2[C@H]1OCCN2C(=O)C1=CCCC1 | > 195
90 | CCC(=O)N1CCC2(C=C(C(=O)N3CCCC3)c3ccccc32)CC1 | > 195
91 | COc1cc(NC2CCCNC2)cc(OC)c1 (stereo unspecified) | > 195
92 | COC(=O)c1ccc(CNCc2ccn(C)n2)cc1 | > 195
93 | C[C@@]1(O)CCN(Cc2cc[nH]n2)C[C@H]1Oc1cccc(F)c1 | > 195
94 | CCOC1COC2(CCN(CC3CC3)CC2)C1 (stereo unspecified) | > 195
95 | O=C(NC1CC1)[C@@H]1C[C@@H]2CCN(Cc3ccoc3)C[C@@H]2O1 | > 195
96 | Cn1nccc1CCC(=O)N1CCCC(Cc2cccnc2)C1 (stereo unspecified) | > 195
97 | CNC(=O)Nc1cnc2cc(Cl)ccc2c1O | > 195
98 | Cc1ccc(CN2C[C@H](NC(=O)c3nccn3C)[C@H]3OCCC[C@H]32)o1 | > 195
99 | CCO[C@H]1CC[C@H]2[C@H]1OCCN2C(=O)COc1ccccc1 | > 195
100 | O=C(NCCN1CCOCC1)Nc1cnc2cc(Cl)ccc2c1O | > 195
101 | CCS(=O)(=O)N1CC(=O)N(Cc2ccccc2OC)CC(O)C1 (stereo unspecified) | > 195
102 | CNC(=O)COC1COC2(CCN(Cc3cccnc3)CC2)C1 (stereo unspecified) | > 195
103 | O=C(CN1CCOC1=O)N1CC[C@@H](c2ccc3ccccc3c2)[C@H](O)C1 | > 195
104 | Cc1nc(C2CCCN2C(=O)COc2ccccc2)ncc1C(N)=O (stereo unspecified) | > 195

Row | SMILES | IC50 [µM]
105 | CCCn1cc(CN2CCCC2c2nccc(CN(C)C)n2)cn1 (stereo unspecified) | > 195
106 | CSc1ncc(Cl)c(C(=O)NC(Cc2ccccc2)C(=O)O)n1 (stereo unspecified) | > 195
107 | Cc1nc(C)c(C(=O)NCCNC(=O)Cc2ccc(F)cc2)s1 | > 195
108 | Cc1ncsc1C(=O)NC1CCN(CCC#N)CC1 | > 195
109 | Cc1nn(CC(=O)NCc2cc3n(n2)CCCN(CC(C)C)C3)cc1Cl | > 195
110 | c1ccc(N2CCOC(Cc3cccnc3)C2)cc1 (stereo unspecified) | > 195
111 | Cc1nc(C2CCN(Cc3ncc[nH]3)CC2)no1 | > 195
112 | Cc1nnc2n1CCN(Cc1csc(-c3ncccn3)n1)C2 | > 195
113 | CCN1Cc2cc(F)ccc2N(CC(O)C(F)(F)F)CCC1=O (stereo unspecified) | > 195
114 | O=C(CCn1ccnc1)N1C[C@@H](O)[C@H](Oc2cccc(F)c2)C1 | > 195
115 | c1cn(-c2cnc(C3CCCNC3)cn2)cn1 (stereo unspecified) | > 195
116 | O=C(NCc1ccccn1)c1cnc(C2CCCN2)cn1 (stereo unspecified) | > 195
117 | Cc1cc(CN(C)CCC(O)c2ccccc2)no1 (stereo unspecified) | > 195
118 | CCn1cc(S(=O)(=O)NC(=O)CCc2c[nH]c3ccccc23)cn1 | > 195
119 | COCC1CC2(CCN(C(=O)c3ccc(F)c(Cl)c3)CC2)CO1 (stereo unspecified) | > 195
120 | Cc1ccc2c(c1)[C@@H](CC(=O)N(C)C)CCO2 | > 195
121 | O=C(NCCCn1ccnc1)c1cccnc1OCC(F)(F)F | > 195
122 | NC(=O)CN1CCOCC(Cc2ccccc2Cl)C1 (stereo unspecified) | > 195
123 | COCC(=O)N1CC(=O)c2sc(Nc3ccc(F)cc3F)nc2C1 | > 195
124 | Cn1cc(CN2CC[C@H](O)[C@@H](n3ccc(=O)[nH]c3=O)CC2)cn1 | > 195
125 | CC(C)OCc1nn(C)c2c1CN(Cc1cccs1)CC2 | > 195
126 | Cc1cc(NC(=O)CN2CCc3cncnc3C2)no1 | > 195
